Laboratory results from the supplement of paper PMC4932681.

Assays:
[1] = test system: ZR-75-1; experiment: drug sensitivity score (DSS) (DSS (dimensionless)); higher = more sensitive; extreme values may be limits of the assay; conditions: 72 h
Summary of the method: (§1)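 CellTiter-Glo viability was the readout, taken on a PHERAstar and normalised to vehicle-only and positive controls. It was measured after breast cancer cell lines and their resistant derivatives spent 72 h at 37 °C in 384-well plates containing library drugs at five concentrations spanning a 10 000-fold range, with 1 μM of the selecting drug in the medium of resistant lines. From logistic dose–response fits in the Breeze pipeline came drug sensitivity score, relative IC50 (curve midpoint) and top-dose inhibition.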

[2] = test system: T-47D Tam2; experiment: as above; conditions: 4-OH-tamoxifen in medium 1 µM; 72 h
Summary of the method: as §1

[3] = test system: MCF-7 Tam1; experiment: as above; conditions: 4-OH-tamoxifen in medium 1 µM; 72 h
Summary of the method: as §1

[4] = test system: T-47D Tam1; experiment: as above; conditions: 4-OH-tamoxifen in medium 1 µM; 72 h
Summary of the method: as §1

[5] = test system: BT-474; experiment: as above; conditions: 72 h
Summary of the method: as §1

[6] = test system: MCF-7; experiment: as above; conditions: 72 h
Summary of the method: as §1

[7] = test system: BT-474 Tam1; experiment: as above; conditions: 4-OH-tamoxifen in medium 1 µM; 72 h
Summary of the method: as §1

[8] = test system: ZR-75-1 Tam1; experiment: as above; conditions: 4-OH-tamoxifen in medium 1 µM; 72 h
Summary of the method: as §1

[9] = test system: BT-474 Tam2; experiment: as above; conditions: 4-OH-tamoxifen in medium 1 µM; 72 h
Summary of the method: as §1

[10] = test system: T-47D; experiment: as above; conditions: 72 h
Summary of the method: as §1

[11] = test system: ZR-75-1 Tam2; experiment: as above; conditions: 4-OH-tamoxifen in medium 1 µM; 72 h
Summary of the method: as §1

[12] = test system: ZR-75-1; experiment: relative IC50 (midpoint of fitted logistic curve, plateau may be below 50% inhibition; CellTiter-Glo viability); higher = less potent; conditions: 72 h
Summary of the method: as §1

[13] = test system: T-47D Tam2; experiment: as above; conditions: 4-OH-tamoxifen in medium 1 µM; 72 h
Summary of the method: as §1

[14] = test system: MCF-7 Tam1; experiment: as above; conditions: 4-OH-tamoxifen in medium 1 µM; 72 h
Summary of the method: as §1

[15] = test system: T-47D Tam1; experiment: as above; conditions: 4-OH-tamoxifen in medium 1 µM; 72 h
Summary of the method: as §1

[16] = test system: BT-474; experiment: as above; conditions: 72 h
Summary of the method: as §1

[17] = test system: MCF-7; experiment: as above; conditions: 72 h
Summary of the method: as §1

[18] = test system: BT-474 Tam1; experiment: as above; conditions: 4-OH-tamoxifen in medium 1 µM; 72 h
Summary of the method: as §1

[19] = test system: ZR-75-1 Tam1; experiment: as above; conditions: 4-OH-tamoxifen in medium 1 µM; 72 h
Summary of the method: as §1

[20] = test system: BT-474 Tam2; experiment: as above; conditions: 4-OH-tamoxifen in medium 1 µM; 72 h
Summary of the method: as §1

[21] = test system: T-47D; experiment: as above; conditions: 72 h
Summary of the method: as §1

[22] = test system: ZR-75-1 Tam2; experiment: as above; conditions: 4-OH-tamoxifen in medium 1 µM; 72 h
Summary of the method: as §1

Row | relative IC50 [13] | relative IC50 [14] | relative IC50 [15] | relative IC50 ([16]; 4-OH-tamoxifen in medium 0 µM) | relative IC50 ([16]; 4-OH-tamoxifen in medium 1 µM) | relative IC50 ([17]; 4-OH-tamoxifen in medium 0 µM) | relative IC50 [18] | relative IC50 [20] | relative IC50 ([21]; 4-OH-tamoxifen in medium 1 µM) | relative IC50 ([21]; 4-OH-tamoxifen in medium 0 µM) | relative IC50 ([17]; 4-OH-tamoxifen in medium 1 µM) | SMILES | drug sensitivity score ([1]; 4-OH-tamoxifen in medium 0 µM) | drug sensitivity score ([1]; 4-OH-tamoxifen in medium 1 µM) | drug sensitivity score [2] | drug sensitivity score [3] | drug sensitivity score [4] | drug sensitivity score ([5]; 4-OH-tamoxifen in medium 0 µM) | drug sensitivity score ([5]; 4-OH-tamoxifen in medium 1 µM) | drug sensitivity score ([6]; 4-OH-tamoxifen in medium 0 µM) | drug sensitivity score ([6]; 4-OH-tamoxifen in medium 1 µM) | drug sensitivity score [7] | drug sensitivity score [8] | drug sensitivity score [9] | drug sensitivity score ([10]; 4-OH-tamoxifen in medium 0 µM) | drug sensitivity score ([10]; 4-OH-tamoxifen in medium 1 µM) | drug sensitivity score [11] | relative IC50 ([12]; 4-OH-tamoxifen in medium 0 µM) | relative IC50 ([12]; 4-OH-tamoxifen in medium 1 µM) | relative IC50 [19] | relative IC50 [22]
1 | 0.218 µM | > 1 µM | 0.0976 µM | 0.00918 µM | 0.00618 µM | > 1 µM | 0.00418 µM | 0.00376 µM | > 1 µM | – | – | CCOc1cc2ncc(C#N)c(Nc3ccc(OCc4ccccn4)c(Cl)c3)c2cc1NC(=O)/C=C/CN(C)C [Neratinib] | 0 | 0 | 2.11 | 0 | 3.53 | 20.8 | 25.6 | 0 | 2.07 | 28.3 | 0 | 28.7 | 0.25 | 0 | 0 | > 1 µM | > 1 µM | > 1 µM | > 1 µM
2 | > 10 µM | > 10 µM | > 10 µM | > 10 µM | > 10 µM | > 10 µM | > 10 µM | > 10 µM | – | > 10 µM | – | Nc1nc2[nH]cc(CCc3ccc(C(=O)N[C@@H](CCC(=O)O)C(=O)O)cc3)c2c(=O)[nH]1 [Pemetrexed] | 0 | 0 | 0 | 0 | 0 | 0 | 0 | 0 | 0.305 | 0 | 0 | 0 | 0 | 0 | 0 | > 10 µM | > 10 µM | > 10 µM | > 10 µM
3 | 1.34 µM | 1.91 µM | 0.235 µM | 0.563 µM | 0.518 µM | 2.79 µM | 1.25 µM | 0.494 µM | 3.59 µM | 2.95 µM | 0.943 µM | COC1=C2C[C@@H](C)C[C@H](OC)[C@H](O)[C@@H](C)/C=C(\C)[C@H](OC(N)=O)[C@@H](OC)/C=C\C=C(/C)C(=O)NC(=CC1=O)C2=O [Geldanamycin] | 6.31 | 9.2 | 6.85 | 4.81 | 14.8 | 9.69 | 10.8 | 5.35 | 9.55 | 8.85 | 7.66 | 12.9 | 4.34 | 3.67 | 6.52 | 1.34 µM | 1.07 µM | 1.12 µM | 1.44 µM
4 | 0.227 µM | 0.147 µM | 0.0399 µM | 0.0607 µM | 0.267 µM | 0.0484 µM | 0.378 µM | 0.399 µM | 0.423 µM | 0.0611 µM | 0.13 µM | COc1ccc(-c2ccc3c(N4CCOC[C@@H]4C)nc(N4CCOC[C@@H]4C)nc3n2)cc1CO [AZD8055] | 18.4 | 17.4 | 10.2 | 6.06 | 17.1 | 11.8 | 13.6 | 20.2 | 11.5 | 12.7 | 16.2 | 8.38 | 16.7 | 8.08 | 19.8 | 0.0313 µM | 0.0123 µM | 0.0389 µM | 0.0185 µM

The next lines start with the molecule.

Row | SMILES | relative IC50 [13] | relative IC50 [14] | relative IC50 [15] | relative IC50 ([16]; 4-OH-tamoxifen in medium 0 µM) | relative IC50 ([16]; 4-OH-tamoxifen in medium 1 µM) | relative IC50 ([17]; 4-OH-tamoxifen in medium 0 µM) | relative IC50 [18] | relative IC50 [20] | relative IC50 ([21]; 4-OH-tamoxifen in medium 1 µM) | relative IC50 ([21]; 4-OH-tamoxifen in medium 0 µM) | relative IC50 ([17]; 4-OH-tamoxifen in medium 1 µM) | drug sensitivity score ([1]; 4-OH-tamoxifen in medium 0 µM) | drug sensitivity score ([1]; 4-OH-tamoxifen in medium 1 µM) | drug sensitivity score [2] | drug sensitivity score [3] | drug sensitivity score [4] | drug sensitivity score ([5]; 4-OH-tamoxifen in medium 0 µM) | drug sensitivity score ([5]; 4-OH-tamoxifen in medium 1 µM) | drug sensitivity score ([6]; 4-OH-tamoxifen in medium 0 µM) | drug sensitivity score ([6]; 4-OH-tamoxifen in medium 1 µM) | drug sensitivity score [7] | drug sensitivity score [8] | drug sensitivity score [9] | drug sensitivity score ([10]; 4-OH-tamoxifen in medium 0 µM) | drug sensitivity score ([10]; 4-OH-tamoxifen in medium 1 µM) | drug sensitivity score [11] | relative IC50 ([12]; 4-OH-tamoxifen in medium 0 µM) | relative IC50 ([12]; 4-OH-tamoxifen in medium 1 µM) | relative IC50 [19] | relative IC50 [22]
5 | Cn1cc(C2=C(c3cn(C4CCN(Cc5ccccn5)CC4)c4ccccc34)C(=O)NC2=O)c2ccccc21 [Enzastaurin] | > 10 µM | > 10 µM | > 10 µM | > 10 µM | > 10 µM | > 10 µM | > 10 µM | > 10 µM | > 10 µM | > 10 µM | > 10 µM | 0 | 0 | 0 | 0 | 0 | 0 | 0 | 0 | 0 | 0 | 0 | 0 | 0 | 0 | 0 | > 10 µM | > 10 µM | > 10 µM | > 10 µM
6 | Clc1ccc(C(c2ccccc2Cl)C(Cl)Cl)cc1 (centres undefined) [Mitotane] | > 10 µM | > 10 µM | > 10 µM | > 10 µM | > 10 µM | > 10 µM | > 10 µM | > 10 µM | > 10 µM | > 10 µM | > 10 µM | 0 | 0 | 0 | 0 | 0 | 0 | 0 | 0 | 0 | 0 | 0 | 0 | 0 | 0 | 0 | > 10 µM | > 10 µM | > 10 µM | > 10 µM
7 | O=P1(NCCCl)OCCCN1CCCl (centres undefined) [Ifosfamide] | > 10 µM | > 10 µM | > 10 µM | > 10 µM | > 10 µM | > 10 µM | > 10 µM | > 10 µM | > 10 µM | > 10 µM | – | 0 | 0 | 0 | 0 | 0 | 0 | 0 | 0 | 0.24 | 0 | 0 | 0 | 0 | 0 | 0 | > 10 µM | > 10 µM | > 10 µM | > 10 µM
8 | NCC(=O)CCC(=O)O [Aminolevulinic acid] | > 10 µM | > 10 µM | > 10 µM | > 10 µM | > 10 µM | > 10 µM | > 10 µM | > 10 µM | > 10 µM | > 10 µM | – | 0 | 0 | 0 | 0 | 0 | 0 | 0 | 0 | 0.809 | 0 | 0 | 0 | 0 | 0 | 0 | > 10 µM | > 10 µM | > 10 µM | > 10 µM
